Test results: patent publication US20250281464A1, “TREATMENT OF PATHOGENIC NEISSERIA SP. INFECTION WITH TRIAZOLE ANTIFUNGAL AGENTS” (Virginia Tech Intellectual Properties, Inc., priority 2022, published 2025)
Converted amounts (≈) assume the structure as drawn. Like-named read-outs stand apart in the source and are kept apart here. Values belong to the molecule of their own block, whether it stands above or below them.

What was measured:
N. gonorrhoeae isolates = assay: MIC against panel of N. gonorrhoeae clinical isolates; format: cell-based, Neisseria gonorrhoeae; details: for MIC50 / MIC90 / MIC: Neisseria gonorrhoeae; for MIC50: read-out: MIC50; for MIC90: read-out: MIC90; for MIC: 103 N. gonorrhoeae isolates, read-out: highest MIC value
L. gasseri = assay: MIC against commensal vaginal Lactobacillus strains; format: cell-based, Lactobacillus gasseri; details: for MIC: Lactobacillus gasseri; for MIC Range: Table 6, L. gasseri (4 strains)
Excerpt: (§1) N. gonorrhoeae pathogenesis greatly depends on colonization of the reproductive tract. One of the natural barriers of such colonization is an intact healthy microbiome. Species of lactobacilli present in the genitourinary tract play a significant role in hindering colonization by Neisseria(1).
(§2) A healthy vaginal microbiome that is dominated by Lactobacillus spp. is less susceptible to N. gonorrhoeae infection and other sexually transmitted diseases (STDs). […] We tested the activity of azoles against important members of healthy vaginal microbiota that inhibit N. gonorrhoeae colonization.

[1] = system: resistant N. gonorrhoeae isolates; assay: MIC against resistant N. gonorrhoeae isolates by agar dilution; format: cell-based, Neisseria gonorrhoeae
N. gonorrhoeae [2] = assay: Post-antibiotic effect (PAE) against N. gonorrhoeae; format: cell-based, Neisseria gonorrhoeae; details: 1 h exposure at 10×MIC
Excerpt: Determining the PAE of a new antimicrobial is an important step for dosing and has clinical importance.

[3] = system: commensal vaginal lactobacilli strains; assay: MIC against all commensal vaginal Lactobacillus strains tested; format: cell-based, Lactobacillus spp.; details: read-out: MIC
Excerpt: as §1, §2

[4] = system: intracellular N. gonorrhoeae FA1090 in endocervical cells (End1/E6E7); details: literature statement [1, 3, 5]; cited from earlier work
N. lactamica = assay: MIC against Neisseria spp.; format: cell-based; details: N. lactamica (1 strain)
Excerpt: (§3) Intrigued by the specificity and potent activity of azoles against N. gonorrhoeae, we evaluated the extent of the azoles' antibacterial activity against other Neisseria species (Table 8).

N. mucosa = assay: MIC against Neisseria spp.; format: cell-based; details: N. mucosa (1 strain)
Excerpt: as §3

N. flavescens = assay: MIC against Neisseria spp.; format: cell-based; details: N. flavescens (1 strain)
Excerpt: as §3

L. johnsonii = assay: MIC against commensal vaginal Lactobacillus strains; format: cell-based, Lactobacillus johnsonii; details: for MIC: Lactobacillus johnsonii, L. johnsonii HM-643; for MIC Range: Table 6, L. johsonii (2 strains)
Excerpt: as §1, §2

L. crispatus = assay: as above; format: cell-based, Lactobacillus crispatus; details: for MIC: Lactobacillus crispatus; for MIC Range: Table 6, L. crispatus (3 strains)
Excerpt: as §1, §2

L. jensenii = assay: as above; format: cell-based, Lactobacillus jensenii; details: for MIC: Lactobacillus jensenii; for MIC Range: Table 6, L. jensenii (7 strains)
Excerpt: as §1, §2

N. meingitidis = assay: MIC against Neisseria spp.; format: cell-based, Neisseria meningitidis; details: N. meingitidis (5 strains)
Lactobacillus rhamnosus = assay: MIC against normal gut microbiota; format: cell-based; details: Lactobacillus rhamnosus (1 strain)
Excerpt: (§4) Disrupting the intestinal microbiota using broad-spectrum antimicrobial therapy increases the susceptibility of hosts to C. difficile colonization.

Bacteroides dorei = assay: MIC against normal gut microbiota; format: cell-based; details: Bacteroides dorei (2 strains)
Excerpt: as §4

Lactobacillus brevis = assay: MIC against normal gut microbiota; format: cell-based; details: Lactobacillus brevis (1 strain)
Excerpt: as §4

[5] = system: Bifidobacterium angulatum; assay: MIC against normal gut microbiota; format: cell-based; details: Bifidobacterium angulatum (1 strain)
Excerpt: as §4

Escherichia coli = assay: MIC against normal gut microbiota; format: cell-based; details: Escherichia coli (1 strain)
Excerpt: as §4

Enterococcus faecalis = assay: MIC against normal gut microbiota; format: cell-based; details: Enterococcus faecalis (1 strain)
Excerpt: as §4

[6] = MIC against normal gut microbiota; format: cell-based
Excerpt: as §4

Staphylococcus aureus = assay: MIC against normal gut microbiota; format: cell-based; details: Staphylococcus aureus (1 strain)
Excerpt: as §4

Enterococcus faecium = assay: MIC against normal gut microbiota; format: cell-based; details: Enterococcus faecium (1 strain)
Excerpt: as §4

Lactobacillus casei = assay: MIC against normal gut microbiota; format: cell-based; details: Lactobacillus casei (1 strain)
Excerpt: as §4

[7] = from single dose; cited from earlier work
Bacteroides fragilis = assay: MIC against normal gut microbiota; format: cell-based; details: Bacteroides fragilis (4 strains)
Excerpt: as §4

N. gonorrhoeae [8] = assay: Drug library screen against N. gonorrhoeae; format: cell-based, Neisseria gonorrhoeae; details: Johns Hopkins Clinical Compounds Library, MCE FDA-Approved Drug Library, Pharmakon library; killing in clinical range
Excerpt: To identify drugs capable of killing Neisseria gonorrhoeae, the Johns Hopkins Clinical Compounds Library (1514), the MCE FDA-Approved Drug Library (2441), and the Pharmakon library (1600) were screened against N. gonorrhoeae. Positive hits that are capable of killing Neisseria gonorrhoeae in clinical range were identified (itraconazole, ravuconazole and isavuconazole).

[9] = Table 1, 104 N. gonorrhoeae isolates
[10] = Table 3, 103 N. gonorrhoeae isolates with different resistance profiles
[11] = Bacteroides adolescentis (2 strains)
[12] = panel of 84 N. gonorrhoeae clinical isolates

MIC50 (N. gonorrhoeae isolates; [9]): 0.03 µg/mL (≈ 0.0541 µM) | MIC90 (N. gonorrhoeae isolates; [9]): 0.06 µg/mL (≈ 0.108 µM) | MIC50 (N. gonorrhoeae isolates; [10]): 0.03 µg/mL (≈ 0.0541 µM) | MIC90 (N. gonorrhoeae isolates; [10]): 0.06 µg/mL (≈ 0.108 µM) | MIC (N. gonorrhoeae isolates): 2 µg/mL (≈ 3.61 µM) | MIC Range (N. gonorrhoeae isolates; [9]): 0.001 to 2 µg/mL | MIC Range (N. gonorrhoeae isolates; [10]): 0.001 to 2 µg/mL | MIC (L. gasseri; L. gasseri HM-407): ≤ 0.5 µg/mL | MIC (L. gasseri; L. gasseri HM-642): 2 µg/mL (≈ 3.61 µM) | MIC (L. gasseri; L. gasseri HM-644): 1 µg/mL (≈ 1.8 µM) | MIC (L. gasseri; L. gasseri HM-647): 1 µg/mL (≈ 1.8 µM) | MIC Range (L. gasseri): ≤1 µg/mL | MIC ([1]; strain CDC-174, agar dilution): 0.25 µg/mL (≈ 0.451 µM) | MIC ([1]; strain CDC-179, agar dilution): 0.015 µg/mL (≈ 0.027 µM) | MIC ([1]; strain CDC-181, agar dilution): 0.06 µg/mL (≈ 0.108 µM) | MIC ([1]; strain WHO-L, agar dilution): 0.5 µg/mL (≈ 0.902 µM) | MIC ([1]; strain WHO-X, agar dilution): 2 µg/mL (≈ 3.61 µM) | MIC ([1]; strain WHO-Y, agar dilution): 1 µg/mL (≈ 1.8 µM) | MIC ([1]; strain WHO-Z, agar dilution): 0.5 µg/mL (≈ 0.902 µM) | MIC ([3]; all species/strains of Lactobacillus tested (Example 2)): < 1 µg/mL | MIC Range (N. lactamica): 0.125 µg/mL (≈ 0.225 µM) | MIC Range (N. mucosa): 0.125 µg/mL (≈ 0.225 µM) | MIC Range (N. flavescens): 0.125 µg/mL (≈ 0.225 µM) | MIC (L. johnsonii): 2 µg/mL (≈ 3.61 µM) | MIC Range (L. johnsonii): ≤1 µg/mL | MIC (L. crispatus; L. crispatus HM-103): 2 µg/mL (≈ 3.61 µM) | MIC (L. crispatus; L. crispatus HM-371): 1 µg/mL (≈ 1.8 µM) | MIC (L. crispatus; L. crispatus HM-638): 4 µg/mL (≈ 7.21 µM) | MIC Range (L. crispatus): ≤1 to 2 µg/mL | MIC (L. jensenii; L. jensenii HM-105): ≤ 0.5 µg/mL | MIC (L. jensenii; L. jensenii HM-372): ≤ 0.5 µg/mL | MIC (L. jensenii; L. jensenii HM-374): 1 µg/mL (≈ 1.8 µM) | MIC (L. jensenii; L. jensenii HM-639): ≤ 0.5 µg/mL | MIC (L. jensenii; L. jensenii HM-640): ≤ 0.5 µg/mL | MIC (L. jensenii; L. jensenii HM-645): ≤ 0.5 µg/mL | MIC (L. jensenii; L. jensenii HM-646): ≤ 0.5 µg/mL | MIC Range (L. jensenii): ≤1 to 2 µg/mL | MIC Range (N. meingitidis): 0.004 to 0.008 µg/mL
Structure (SMILES): CO/N=C(\C(=O)N[C@@H]1C(=O)N2C(C(=O)O)=C(CSc3nc(=O)c(=O)[nH]n3C)CS[C@H]12)c1csc(N)n1 [Ceftriaxone]
PAE (N. gonorrhoeae [2]; strain FA 1090): 4 h | PAE (N. gonorrhoeae [2]; strain WHO P): 8 h | PAE (N. gonorrhoeae [2]; strain WHO Y): 6 h | ability to clear intracellular N. gonorrhoeae [4]: unable to clear intracellular N. gonorrhoeae | MIC Range (Lactobacillus rhamnosus): 16 µg/mL (≈ 28.9 µM) | MIC Range (Bacteroides dorei): 4 to 16 µg/mL | MIC Range (Lactobacillus brevis): 0.5 µg/mL (≈ 0.902 µM) | MIC Range [5]: 0.125 µg/mL (≈ 0.225 µM) | MIC Range (Escherichia coli): 0.03 µg/mL (≈ 0.0541 µM) | MIC Range (Enterococcus faecalis): 8 µg/mL (≈ 14.4 µM) | MIC Range [6, 11]: 0.125 µg/mL (≈ 0.225 µM) | MIC Range ([6]; Bacteroides breve (2 strains)): 1 to 4 µg/mL | MIC Range ([6]; Bacteroides longum (2 strains)): 4 µg/mL (≈ 7.21 µM) | MIC Range (Staphylococcus aureus): 2 µg/mL (≈ 3.61 µM) | MIC Range (Enterococcus faecium): 8 µg/mL (≈ 14.4 µM) | MIC Range (Lactobacillus casei): 16 µg/mL (≈ 28.9 µM)

Structure (SMILES): C[C@@H](c1nc(-c2ccc(C#N)cc2)cs1)[C@](O)(Cn1cncn1)c1ccc(F)cc1F [Ravuconazole]
MIC50 (N. gonorrhoeae isolates; [9]): 0.03 µg/mL (≈ 0.0686 µM) | MIC90 (N. gonorrhoeae isolates; [9]): 0.06 µg/mL (≈ 0.137 µM) | MIC50 (N. gonorrhoeae isolates; [10]): 0.03 µg/mL (≈ 0.0686 µM) | MIC90 (N. gonorrhoeae isolates; [10]): 0.06 µg/mL (≈ 0.137 µM) | MIC50 (N. gonorrhoeae isolates; [12]): 0.03 µg/mL (≈ 0.0686 µM) | MIC90 (N. gonorrhoeae isolates; [12]): 0.06 µg/mL (≈ 0.137 µM) | MIC (N. gonorrhoeae isolates): 0.25 µg/mL (≈ 0.571 µM) | MIC Range (N. gonorrhoeae isolates; [10]): 0.002 to 0.25 µg/mL | fold more potent antimicrobial activity than isavuconazole (N. gonorrhoeae isolates; from Table 3 and Table 8): ≥ 125 fold | MIC (L. gasseri; L. gasseri HM-407): > 256 µg/mL | MIC (L. gasseri; L. gasseri HM-642): > 256 µg/mL | MIC (L. gasseri; L. gasseri HM-644): > 256 µg/mL | MIC (L. gasseri; L. gasseri HM-647): > 256 µg/mL | MIC Range (L. gasseri): ≥256 µg/mL | MIC ([1]; strain CDC-174, agar dilution): 0.25 µg/mL (≈ 0.571 µM) | MIC ([1]; strain CDC-179, agar dilution): 0.06 µg/mL (≈ 0.137 µM) | MIC ([1]; strain CDC-181, agar dilution): 0.25 µg/mL (≈ 0.571 µM) | MIC ([1]; strain WHO-L, agar dilution): 0.25 µg/mL (≈ 0.571 µM) | MIC ([1]; strain WHO-X, agar dilution): 0.25 µg/mL (≈ 0.571 µM) | MIC ([1]; strain WHO-Y, agar dilution): 0.25 µg/mL (≈ 0.571 µM) | MIC ([1]; strain WHO-Z, agar dilution): 0.25 µg/mL (≈ 0.571 µM) | PAE (N. gonorrhoeae [2]; strain FA 1090): 12 h | PAE (N. gonorrhoeae [2]; strain WHO P): >16 h | PAE (N. gonorrhoeae [2]; strain WHO Y): 16 h | MIC ([3]; Lactobacillus, all strains of lactobacilli (Example 1 text)): > 256 µg/mL | MIC Range (N. lactamica): 0.03 µg/mL (≈ 0.0686 µM) | MIC Range (N. mucosa): 0.125 µg/mL (≈ 0.286 µM) | MIC Range (N. flavescens): 0.125 µg/mL (≈ 0.286 µM) | MIC (L. johnsonii): > 256 µg/mL | MIC Range (L. johnsonii): ≥256 µg/mL | MIC (L. crispatus; L. crispatus HM-103): > 256 µg/mL | MIC (L. crispatus; L. crispatus HM-371): > 256 µg/mL | MIC (L. crispatus; L. crispatus HM-638): > 256 µg/mL | MIC Range (L. crispatus): ≥256 µg/mL | half-life [7]: up to 8 days | MIC (L. jensenii; L. jensenii HM-105): > 256 µg/mL | MIC (L. jensenii; L. jensenii HM-372): > 256 µg/mL | MIC (L. jensenii; L. jensenii HM-374): > 256 µg/mL | MIC (L. jensenii; L. jensenii HM-639): > 256 µg/mL | MIC (L. jensenii; L. jensenii HM-640): > 256 µg/mL | MIC (L. jensenii; L. jensenii HM-645): > 256 µg/mL | MIC (L. jensenii; L. jensenii HM-646): > 256 µg/mL | MIC Range (L. jensenii): ≥256 µg/mL | MIC Range (N. meingitidis): 0.004 to 0.008 µg/mL | MIC Range (Lactobacillus rhamnosus): >256 µg/mL | MIC Range (Bacteroides fragilis): >256 µg/mL | MIC Range (Bacteroides dorei): >256 µg/mL | MIC Range (Lactobacillus brevis): >256 µg/mL | MIC Range [5]: >256 µg/mL | MIC Range (Escherichia coli): >256 µg/mL | MIC Range (Enterococcus faecalis): >256 µg/mL | MIC Range [6, 11]: >256 µg/mL | MIC Range ([6]; Bacteroides breve (2 strains)): >256 µg/mL | MIC Range ([6]; Bacteroides longum (2 strains)): >256 µg/mL | MIC Range (Staphylococcus aureus): >256 µg/mL | MIC Range (Enterococcus faecium): >256 µg/mL | MIC Range (Lactobacillus casei): >256 µg/mL | screening outcome (N. gonorrhoeae [8]): Positive hits
